{"source": "paper PMC10350920", "about": "“Development of a 2,4-Diaminothiazole Series for the Treatment of Human African Trypanosomiasis Highlights the Importance of Static–Cidal Screening of Analogues” (Journal of Medicinal Chemistry, 2023)", "key": {"[1]": {"tested_on": "Tb927.8.6290 overexpressing cell lines (WT)", "assay": "Drug sensitivity, line overexpressing Tb927.8.6290 WT", "type": "cell-based, T. b. brucei", "conditions": "for EC50: Trypanosoma brucei", "experimental": "(§1) Drug sensitivity assays were carried out with BSF T. b. brucei “single marker” S427 or BSF T. b. brucei, Lister 427, MiTat 1.2, clone 221a 2T1 cells,[45] cells grown at 37 °C with 5% CO2 in an HMI-9T medium[46] as previously described.[47] 2T1 cells were initially maintained with 1 μg mL^–1 puromycin and 1 μg mL^–1 phleomycin prior to transfection or 2.5 μg mL^–1 hygromycin and 1 μg mL^–1 phleomycin after transfection. Induction of overexpression was achieved by the addition of 1 μg mL^–1 tetracycline to the culture medium.\n(§2) The following primers were used to PCR amplify Tb927.8.6290 from genomic DNA isolated from wild-type and 38-resistant trypanosomes 5′-[…]-3′ (PacI site in bold) and 5′-[…]-3′ (BamHI site in bold). The PCR products (1272 bp) were then cloned into the pRPa plasmid.[53] The accuracy of the plasmid constructs was confirmed by in-house Sanger sequencing and then linearized with AscI prior to transfection. The linearized plasmids were introduced into 2T1 T. b. brucei cells following removal of puromycin from the media and selected with 2.5 μg mL^–1 hygromycin and 1 μg mL^–1 phleomycin. Two independent clones were selected for further studies."}, "BSF trypanosomes": {"tested_on": "BSF trypanosomes", "assay": "Static–cidal assay", "type": "cell-based, T. brucei", "conditions": "lower concentrations cytostatic", "source_text": "To complement our established T. brucei cell-based screen, in the course of these studies, we developed an assay that allows discrimination of compounds that are cytostatic from those that are cytocidal.[15] In this assay, static and cidal compounds are categorized by analysis of growth curves, with cidal compounds causing a decrease in parasite numbers. Commonly, phenotypic screens with T. brucei are end-point assays with live-cell indicators used as the final readout. In our […] assay, bloodstream trypanosomes are grown in the presence of test compounds for 3 days with a starting cell density well below the assay limit of detection, thus making it impossible to distinguish cidal from static compounds. To assess if compounds within this diaminothiazole series kill trypanosomes or merely stop parasite growth, we profiled a panel of compounds in our static–cidal assay. […] Similarly in rats, the concentration would be below the level for cidal activity.\nAn assay to assess initial indications of the cidal nature of the compound series was conducted as previously reported.[15] […] After 4 h, the time = 0 plate was read using a PerkinElmer Victor 3 plate reader (excitation 528 nm; emission 590 nm). […]"}, "[2]": {"assay": "Mammalian cell counter screen (MRC-5)", "type": "cell-based, human", "conditions": "human, MRC-5 fibroblasts; mean values; number of replicates in parentheses", "experimental": "Drug sensitivity assays with BSF T. b. brucei “single marker” S427 and human MRC-5 fibroblasts were conducted as previously described.[43]"}, "T. brucei wild-type": {"tested_on": "T. brucei wild-type", "assay": "Drug sensitivity, wild-type parental line", "type": "cell-based, T. b. brucei", "conditions": "Trypanosoma brucei; weighted mean of ≥3 independent experiments", "experimental": "as §1\n(§3) Compound-resistant cell lines were generated by subculturing a clone of T. brucei in the continuous presence of 38. Starting at sublethal concentrations, drug concentrations in two independent cultures were increased in a stepwise manner, usually 2-fold. When parasites were able to survive and grow in concentrations of drugs equivalent to more than 10 times the established EC50 value, the resulting cell lines were cloned by limiting dilution in the presence of the compound. Two clones (RES I-II) were selected for further biological study. A standard alkaline lysis protocol was used to isolate genomic DNA from compound-resistant bloodstream T. brucei parasites (∼1 × 10^8). Whole genome sequencing was performed using a DNB-seq next-generation sequencing platform (BGI, Hong Kong). Sequencing reads (150 bp) were aligned to the T. brucei TREU927 genome (v39; tritrypDB) using Bowtie2[48] and Samtools[49] software. […] Samtools and BCFtools[52] (mpileup) were used to call SNP and indels compared with the wild-type starter clone, where the overall quality score (QUAL) was >100. Artemis[50] was used to analyze chromosome and gene copy number variation, as well as visualization of SNPs."}, "[3]": {"assay": "Tolerability / maximum tolerated dose", "conditions": "NMRI mice, IP"}, "[4]": {"tested_on": "Tb927.8.6290 overexpressing cell lines (V241F/A258V)", "assay": "Drug sensitivity, line overexpressing Tb927.8.6290 V241F/A258V", "type": "cell-based, T. b. brucei", "conditions": "for EC50: Trypanosoma brucei", "experimental": "as §1, §2"}, "T. brucei RES I": {"tested_on": "T. brucei RES I", "assay": "Drug sensitivity, compound 38-resistant clone RES I", "type": "cell-based, T. b. brucei", "experimental": "as §1, §3"}, "[5]": {"assay": "Pharmacokinetics in HRN mice", "conditions": "IP, 10 mg kg^–1"}, "[6]": {"conditions": "mouse, in vivo, ip"}, "stage 2 HAT": {"tested_on": "stage 2 HAT", "assay": "Stage 2 model of CNS disease", "type": "in vivo"}}, "note": "Read-outs that look alike come from different tables or passages of the source."}
{"compound": "CC(C)(O)CC(=O)c1sc(Nc2ccc(F)c(F)c2)nc1N", "note": "[Compound 38, 1-(4-Amino-2-((3,4-difluorophenyl)amino)thiazol-5-yl)-3-hydroxy-3-methylbutan-1-one]", "values": [{"measurement": "EC50", "setting": "[1]; read-out: EC50, WT +TET", "value": "10000 ± 250", "unit": "nM"}, {"measurement": "EC50", "setting": "[1]; read-out: EC50, WT –TET", "value": "400 ± 25", "unit": "nM"}, {"measurement": "fold shift, WT", "setting": "[1]; −TET vs +TET EC50, in brackets", "value": 26}, {"measurement": "concentration that is cidal (reduction in parasite number)", "setting": "BSF trypanosomes", "value": 50, "unit": "µM"}, {"measurement": "EC50", "setting": "[2]", "value": 46000, "unit": "nM"}, {"measurement": "EC50", "setting": "T. brucei wild-type", "value": "310 ± 4", "unit": "nM"}, {"measurement": "maximum dose chosen following maximum tolerated dose study", "setting": "[3]", "value": 100, "unit": "mg kg^–1"}, {"measurement": "EC50", "setting": "[4]; read-out: EC50, V241F/A258V +TET", "value": "12000 ± 690", "unit": "nM"}, {"measurement": "EC50", "setting": "[4]; read-out: EC50, V241F/A258V –TET", "value": "270 ± 18", "unit": "nM"}, {"measurement": "fold shift, V241F/A258V", "setting": "[4]; −TET vs +TET EC50, in brackets", "value": 45}, {"measurement": "EC50", "setting": "T. brucei RES I; Trypanosoma brucei, read-out: EC50, RES I", "value": "2200 ± 84", "unit": "nM"}, {"measurement": "fold resistance, RES I", "setting": "T. brucei RES I; relative to the parental wild-type, in brackets", "value": 7}]}
{"compound": "(4-Amino-2-(cyclohexylamino)thiazol-5-yl)(2,6-difluorophenyl)methanone [Compound 16]", "values": [{"measurement": "concentration that is cidal (reduction in parasite number)", "setting": "BSF trypanosomes", "value": "above 5.6 μM"}, {"measurement": "AUC", "setting": "[5]", "value": "1,000,000 ng mL h^–1"}, {"measurement": "Tmax", "setting": "[5]", "value": 30, "unit": "min"}, {"measurement": "exposure in HRN mice relative to NMRI mice", "setting": "[6]", "value": 15, "unit": "fold"}, {"measurement": "efficacy in stage 2 disease model", "setting": "stage 2 HAT", "value": "not efficacious"}]}
